Laboratory results published in patent US5998437A, “Benzimidazole derivatives” (Otsuka Pharmaceutical Co., Ltd., priority 1995, dated 1999).
Like-named read-outs stand apart in the source and are kept apart here.

Key:
cGMP-PDE = biological target: T1, cGMP-PDE (Homo sapiens, UniProt O76074); experiment: Activity for inhibiting cGMP PDE (PDE partially purified from human platelets, FI fraction); assay type: biochemical; conditions: 0.4 μM of [3H]-cGMP
T1 construct: Separation and partial purification of PDE (phosphodiesterase) from human platelets; from tissue; host or cells: human platelets (supernatant, DEAE-cellulose FI fraction)
Experimental: (1) Measurement of the Activity for Inhibiting cGMP PDE
Separation and partial purification of PDE (phosphodiesterase) from human platelets, and measurement of the activity for inhibiting cGMP PDE were conducted by the method of Hidaka, et al. [Biochimica et Biophysica Acta, Vol. 429, (1976), pp. 485-497]. The platelets obtained from human healthy adult were washed, and suspended in TRIS-buffer solution, then said suspension was treated by centrifugal separation, the supernatant was subjected to a DEAE-cellulose treatment and fractionated into FI to FIII fractions by a method of concentration gradient of sodium acetate. Thus obtained FI fraction was used as the sample of cGMP-PDE. The activity for inhibiting cGMP-PDE was measured by using 0.4 μM of [^3 H]-cGMP.

rat A10 cells = experiment: Activity for inhibiting proliferation of rat A10 cells ([3H]-thymidine uptake); assay type: cell-based; conditions: read-out: Activity for inhibiting proliferation of rat A10 cells [IC50 (μM)]
Experimental: (2) Measurement of the Activity for Inhibiting Proliferation of Rat A10 Cells
(§1) Test was conducted by the modified method of N. Morisaki [Atherosclerosis, Vol. 71, (1988), pp. 165-171]. The rat A10 cells (purchased from Dainippon Pharmaceutical Co., Ltd.) were inoculated on a 24 wells immunoplate at a density of 10,000 cells/well, and were cultured in 10% FBS (fetal bovine serum) for 2 days, and in order to introduce the cells into the resting stage, the cells were further cultured in a serum-free medium for 2 days. After that, 1% FBS was added thereto for stimulating the proliferation, of the cells and at the same time, a test compound and 0.5 μCi/well of [^3 H]-thymidine were added. As to the index of synthesized amount of DNA, the quantity of [^3 H]-thymidine being uptaken by the cells was measured at the time of 24 hours after the final cultivation was started.

human fibroblast = experiment: Activity for inhibiting proliferation of the human fibroblast ([3H]-thymidine uptake); assay type: cell-based
Experimental: as §1
(3) Measurement of the Activity for Inhibiting Proliferation of the Human Fibroblast
Similar to the activity for inhibiting proliferation of rat A10 cells as mentioned above, the activity for inhibiting proliferation of the human fibroblast (purchased from Dainippon Pharmaceutical Co., Ltd.) was determined by measuring the uptake amount of [^3 H]-thymidine.

[1] = A10, 1% FBS stimulation, 24 hours

Row | Structure (SMILES) | IC50 (cGMP-PDE) [µM] | IC50 (rat A10 cells; A10, 24 h) [µM] | IC50 (rat A10 cells; [1]) [µM] | IC50 (human fibroblast) [µM]
1 | O=C(Nc1ccc2[nH]ccc2c1)c1nc2ccc(Cl)cc2n1Cc1ccccc1 [Example 2] | 0.02 | 0.4 |  | 
2 | CN(CCCn1ccc2cc(NC(=O)c3nc4ccc(Cl)cc4n3Cc3ccccc3)ccc21)C1CCCCC1 [Example 4] | 0.06 |  | 0.3 | 
3 | O=C(Nc1ccc2c(ccn2CCCn2cccn2)c1)c1nc2ccc(Cl)cc2n1Cc1ccccc1 [Example 6] |  |  | 0.66 | 
4 | O=C(Nc1ccc2c(ccn2CCCn2cncn2)c1)c1nc2ccc(Cl)cc2n1Cc1ccccc1 [Example 7] |  |  | 0.49 | 
5 | COC(=O)n1ccc2cc(NC(=O)c3nc4ccc(Cl)cc4n3Cc3ccccc3)ccc21 [Example 9] | 0.08 |  |  | 
6 | O=C(NCCCn1ccc2cc(NC(=O)c3nc4ccc(Cl)cc4n3Cc3ccccc3)ccc21)c1cccnc1 [Example 11, 1-benzyl-6-chloro-2-{1-[3-(pyridin-3-ylcarbonylamino)propyl]indol-5-ylaminocarbonyl}benzimidazole] | 0.01 |  | 0.97 | 
7 | Cc1noc(C)c1C(=O)NCCCn1ccc2cc(NC(=O)c3nc4ccc(Cl)cc4n3Cc3ccccc3)ccc21 [Example 12] |  |  | 0.69 | 
8 | CC(C)n1nnnc1Cn1ccc2cc(NC(=O)c3nc4ccc(Cl)cc4n3Cc3ccccc3)ccc21 [Example 16] |  |  |  | 0.049
9 | CC(C)c1nccn1CCCn1ccc2cc(CNC(=O)c3nc4ccc(Cl)cc4n3Cc3ccccc3)ccc21 [Example 18] |  |  | 0.48 | 
10 | O=C(Nc1ccc2c(c1)CCN2CCCN1CCC(O)(c2ccccc2)CC1)c1nc2ccc(Cl)cc2n1Cc1ccccc1 [Example 20] | 0.01 | 0.85 |  | 
11 | O=C(Nc1ccc2[nH]ncc2c1)c1nc2ccc(Cl)cc2n1Cc1ccccc1 [Example 21] | 0.02 |  |  | 
12 | N#Cc1cccc(OCCCn2ccc3cc(NC(=O)c4nc5ccc(Cl)cc5n4Cc4ccccc4)ccc32)c1 [Example 25] | 0.12 |  |  | 
13 | O=C(NCCCN1CCc2cc(NC(=O)c3nc4ccc(Cl)cc4n3Cc3ccccc3)ccc21)c1ccc[nH]1 [Example 28] | < 0.01 |  |  | 
14 | Cc1noc(C)c1C(=O)NCCCN1CCc2cc(NC(=O)c3nc4ccc(Cl)cc4n3Cc3ccccc3)ccc21 [Example 33] | < 0.01 |  | 1.27 | 0.042
15 | O=C1CCc2cc(NC(=O)c3nc4ccc(Cl)cc4n3Cc3ccccc3)ccc2N1 [Example 41, 1-benzyl-6-chloro-2-(3,4-dihydro-2(1H)-quinolinon-6-ylaminocarbonyl)benzimidazole] | 0.02 |  |  | 
16 | C=CCN1C(=O)CCc2cc(NC(=O)c3nc4ccc(Cl)cc4n3Cc3ccccc3)ccc21 [Example 42] | 0.1 |  | 0.95 | 
17 | CN(C)CCN(C)CCCN1C(=O)CCc2cc(NC(=O)c3nc4ccc(Cl)cc4n3Cc3ccccc3)ccc21 [Example 44] | 0.014 |  |  | 
18 | CC(C)n1nnnc1CN1C(=O)CCc2cc(NC(=O)c3nc4ccc(Cl)cc4n3Cc3ccccc3)ccc21 [Example 45] |  |  |  | 0.041
19 | O=C(Nc1ccc2[nH]c(=O)ccc2c1)c1nc2ccc(Cl)cc2n1Cc1ccccc1 [Example 46, 1-benzyl-6-chloro-2-[2(1H)-quinolinon-6-ylamino-caronyl]benzimidazole] | < 0.01 |  |  | 
20 | O=C(NCCCN1CCOc2cc(NC(=O)c3nc4ccc(Cl)cc4n3Cc3ccccc3)ccc21)c1ccccn1 [Example 47] | < 0.01 |  | 0.67 | 0.021
